Earlier results on 1 molecule are cited in patent US20100179144A1, “QUINAZOLINE DERIVATIVES AS P13 KINASE INHIBITORS” (priority 2007, published 2010).

The term IC50 denotes the concentration needed to halve the response being measured.

For this data set, the system named is Class I PI3-kinases. The note with it: about; Fruman et al. 1998; read-out: IC50 against each of these PI3-kinases.

On to `O=c1cc(N2CCOCC2)oc2c(-c3ccccc3)cccc12` [LY294002], for which the IC50 was 15 to 20 µM.
